Reference: patent US8088761B2, “Enzyme inhibitors” (Cancer Research Technology Limited, priority 2005, dated 2012)

Experiments:
HCT116 cells = assay: Cell viability assay (MTT) in HCT116 cell line; type: cell-based; conditions: Homo sapiens, HCT-116, 72 hrs, IC50 range, read-out: HCT116 cell growth inhibition
Outline: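 MTT read-out (4 hrs, 37 °C, DMSO extraction) following 72 hrs of treatment with 0-50 μM Aurora inhibitor. HCT116 cells were plated a day earlier and tested in triplicate; IC50 derived from the curve.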

Aurora-A [1] = biological target: T1, Aurora-A (Homo sapiens, UniProt O14965); assay: Flashplate Aurora A enzyme inhibition assay; type: biochemical; conditions: Flashplate assay; IC50 range; read-out: Aurora-A inhibition
T1 sequence (O14965 1-403): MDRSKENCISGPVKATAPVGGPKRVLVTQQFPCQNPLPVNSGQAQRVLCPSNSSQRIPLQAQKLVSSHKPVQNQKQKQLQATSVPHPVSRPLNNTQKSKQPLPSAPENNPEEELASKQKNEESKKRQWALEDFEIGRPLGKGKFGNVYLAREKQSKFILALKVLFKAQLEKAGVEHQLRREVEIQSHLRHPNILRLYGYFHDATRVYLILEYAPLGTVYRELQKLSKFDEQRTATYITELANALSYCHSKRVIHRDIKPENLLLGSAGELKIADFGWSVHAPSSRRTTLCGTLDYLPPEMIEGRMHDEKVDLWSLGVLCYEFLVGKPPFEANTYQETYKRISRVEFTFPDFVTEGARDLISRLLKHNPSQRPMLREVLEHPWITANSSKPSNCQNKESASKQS
Outline: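 This is a radiometric Flashplate format: plates were precoated with DTT, and compound (in 2% DMSO) was mixed with kinase buffer (pH 7.5 Tris, MgCl2, NaCl) containing 1 mM MBP, 20 μM ATP and ^33P-ATP. The reaction was started with 250 ng Aurora-A per well and incubated 2 h at RT. It was then stopped by 10 mM sodium pyrophosphate washing, and plates were scintillation-counted.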

Aurora-A [2] = biological target: T1, Aurora-A; assay: Filterplate assay for Aurora-A inhibitors; type: biochemical; conditions: read-out: IC50 against Aurora-A
Protocol: Filterplate Assay for Identification and Evaluation of Aurora-A Inhibitors
(§1) 40 μl master mix of kinase buffer (50 mM Tris pH 7.5, 10 mM NaCl, 2.5 mM MgCL2, 1 mM DTT, 20 μM ATP, 0.025 μCi/μl ^33P-ATP, and 100 μg/ml MBP was added to a 96-well plate followed by addition of 250 ng of Aurora-A enzyme per well. The plate was shaken for approximately 2 min on a flat-bed plate shaker (Wellmix, Denley, UK) and incubated for 2 hours at room temperature. The reaction was stopped by the addition of 30 μl of 2% orthophosphoric acid. The reaction mixture was then transferred and filtered on the 96-well Multi-Screening Filter Plate (MATAH0P00, MILLIPORE), pre-treated with 50 μl per well of 0.5% orthophosphoric acid. The plate was washed twice with 200 μl of 0.5% orthophosphoric acid and vacuum-dried. 25 μl of scintillant (Microscint™20, PerkinElmer) per well was added and the plate was shaken for 10 min. Finally, the plate was re-sealed with TopSealA and the signal from the filter-bound component was read on TopCount-NXT™ (PerkinElmer Life Sciences UK Ltd., Hounslow, UK).

Aurora-C [3] = biological target: T2, Aurora-C (Homo sapiens, UniProt Q9UQB9); assay: Flashplate assay for Aurora-C inhibitors; type: biochemical; conditions: read-out: IC50 against Aurora-C
T2 sequence (Q9UQB9 1-309): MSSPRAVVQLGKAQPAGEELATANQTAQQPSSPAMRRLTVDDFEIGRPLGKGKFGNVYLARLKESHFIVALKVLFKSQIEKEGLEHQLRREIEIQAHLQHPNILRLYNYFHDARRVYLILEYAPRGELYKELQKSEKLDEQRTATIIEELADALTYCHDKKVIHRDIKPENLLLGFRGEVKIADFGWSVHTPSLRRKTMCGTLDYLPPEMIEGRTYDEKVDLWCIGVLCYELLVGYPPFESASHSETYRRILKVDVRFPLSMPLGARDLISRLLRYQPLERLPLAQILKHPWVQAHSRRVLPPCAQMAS
Protocol: (§2) On this assay 384-well Basic Flashplate® (SMP400E, PerkinElmer) as solid assay platform was used. The plates were coated overnight at 4° C. with […] at 100 μg/ml in PBS buffer and used after being washed twice with PBS. 5 μl of compound in 2% DMSO was added to each well followed by 15 μl master mix of kinase buffer (50 mM Tris pH 7.5, 10 mM NaCl, 2.5 mM MgCl2, 1 mM […], 20 μM ATP, and 0.025 μCi/μl ^33P-ATP). Finally, 250 ng per well of Aurora-A enzyme was added. The plate was shaken for approximately 2 min on a flat-bed plate shaker (Wellmix, Denley, UK) and incubated for 2 hours at room temperature. The reaction was stopped by washing the plate twice on a 16-pin wash (ELX50 BioTek Instruments Ltd., Northstar, Bedford, UK) with 10 mM sodium pyrophosphate. The plate was then read on a TopCount-NX™ (PerkinElmer Life Sciences UK Ltd., Hounslow, UK).
(§3) Flashplate® Assay for Identification and Evaluation of Aurora-B and Aurora-C Inhibitors
(§4) For the determination of the inhibitory activity against Aurora-B or Aurora-C, the same conditions were followed in the assay using Aurora-B or Aurora-C enzymes.

Aurora-B [4] = biological target: T3, Aurora-B (Homo sapiens, UniProt Q96GD4); assay: Flashplate assay for Aurora-B inhibitors; type: biochemical; conditions: read-out: IC50 against Aurora-B
Protocol: as §2, §3, §4

Aurora-C [5] = biological target: T2, Aurora-C; assay: Filterplate assay for Aurora-C inhibitors; type: biochemical; conditions: read-out: IC50 range in respect of Aurora-C
Protocol: as §1
(§5) Filterplate Assay for Identification and Evaluation of Aurora-B and Aurora-C Inhibitors
as §4

Aurora-B [6] = biological target: T3, Aurora-B; assay: Filterplate assay for Aurora-B inhibitors; type: biochemical; conditions: read-out: IC50 range in respect of Aurora-B
Protocol: as §1, §5, §4

T3 sequence (Q96GD4 whole entry): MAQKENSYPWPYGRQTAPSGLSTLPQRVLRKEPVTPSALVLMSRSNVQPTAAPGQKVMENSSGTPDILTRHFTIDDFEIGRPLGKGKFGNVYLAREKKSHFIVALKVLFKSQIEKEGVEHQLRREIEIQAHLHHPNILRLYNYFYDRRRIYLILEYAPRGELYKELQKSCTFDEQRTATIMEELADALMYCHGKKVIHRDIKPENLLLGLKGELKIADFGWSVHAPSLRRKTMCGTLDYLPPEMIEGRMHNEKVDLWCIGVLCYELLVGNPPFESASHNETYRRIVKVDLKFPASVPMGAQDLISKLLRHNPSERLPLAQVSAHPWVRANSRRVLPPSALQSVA

Row | Structure (SMILES) | IC50 (HCT116 cells) [nM] | IC50 (Aurora-A [1]) [nM] | IC50 (Aurora-A [2]) [nM] | IC50 (Aurora-C [3]) [nM] | IC50 (Aurora-B [4]) [nM] | IC50 (Aurora-C [5]) [nM] | IC50 (Aurora-B [6]) [nM]
1 | CN(C)c1ccc(-c2nc3c(N4CCN(CC(=O)Nc5nccs5)CC4)c(Br)cnc3[nH]2)cc1 [Example 2, 2-{4-[6-Bromo-2-(4-dimethylamino-phenyl)-3H-imidazo[4,5-b]pyridin-7-yl]-piperazin-1-yl}-N-thiazol-2-yl-acetamide] | < 500 | < 500 | 70 | 530 | 410 |  | 
2 | Brc1cnc2[nH]c(-c3ccc(CN4CCOCC4)cc3)nc2c1N1CCN(Cc2cncnc2)CC1 [Example 122, 4-(4-(6-Bromo-7-(4-(pyrimidin-5-ylmethyl)piperazin-1-yl)-3H-imidazo[4,5-b]pyridin-2-yl)benzyl)morpholine] | < 500 | < 500 |  |  |  | < 500 | < 500
3 | Cc1cc(CN2CCN(c3c(Br)cnc4[nH]c(-c5ccc(Cn6cccn6)cc5)nc34)CC2)no1 [Example 77, 6-Bromo-7-[4-(5-methyl-isoxazol-3-ylmethyl)-piperazin-1-yl]-2-(4-pyrazol-1-ylmethyl-phenyl)-3H-imidazo[4,5-b]pyridine] | < 500 | < 500 |  |  |  | < 500 | < 500
4 | Cc1cc(CN2CCN(c3c(Br)cnc4[nH]c(-c5ccc(CN6CCOCC6)cc5)nc34)CC2)no1 [Example 75, 6-Bromo-7-[4-(5-methyl-isoxazol-3-ylmethyl)-piperazin-1-yl]-2-(4-morpholin-4-ylmethyl-phenyl)-3H-imidazo[4,5-b]pyridine] | < 500 | < 500 |  |  |  | < 500 | < 500
5 | Brc1cnc2[nH]c(-c3ccc(CN4CCNCC4)cc3)nc2c1N1CCN(Cc2cccnc2)CC1 [Example 106, 6-Bromo-2-(4-(piperazin-1-ylmethyl)phenyl)-7-(4-(pyridin-3-ylmethyl)piperazin-1-yl)-3H-imidazo[4,5-b]pyridine] | < 500 | < 500 |  |  |  | < 500 | 500 to 2000
6 | Cc1nc(CN2CCN(c3c(Br)cnc4[nH]c(-c5ccc(Cn6cccn6)cc5)nc34)CC2)cs1 [Example 162, 4-((4-(2-(4-((1H-Pyrazol-1-yl)methyl)phenyl)-6-bromo-3H-imidazo[4,5-b]pyridin-7-yl)piperazin-1-yl)methyl)-2-methylthiazole] | < 500 | < 500 |  |  |  | < 500 | 500 to 2000
7 | Brc1cnc2[nH]c(-c3ccc(CN4CCOCC4)cc3)nc2c1N1CCN(Cc2cccnc2)CC1 [Example 65, 6-Bromo-2-(4-morpholin-4-ylmethyl-phenyl)-7-(4-pyridin-3-ylmethyl-piperazin-1-yl)-3H-imidazo[4,5-b]pyridine] | < 500 | < 500 |  |  |  | < 500 | 500 to 2000
8 | Brc1cnc2[nH]c(-c3ccc(N4CCOCC4)cc3)nc2c1N1CCN(Cc2cccnc2)CC1 [Example 102, 4-(4-(6-Bromo-7-(4-(pyridin-3-ylmethyl)piperazin-1-yl)-3H-imidazo[4,5-b]pyridin-2-yl)phenyl)morpholine] | < 500 | < 500 |  |  |  |  | 
9 | CC(c1ccncc1)N1CCN(c2c(Br)cnc3[nH]c(-c4cccc(CN5CCN(C)CC5)c4)nc23)CC1 (stereo not shown) [Example 95, 6-Bromo-2-(3-((4-methylpiperazin-1-yl)methyl)phenyl)-7-(4-(1-(pyridin-4-yl)ethyl)piperazin-1-yl)-3H-imidazo[4,5-b]pyridine] | 500 to 2000 | < 500 |  |  |  |  | 
10 | CC(c1ccncc1)N1CCN(c2c(Br)cnc3[nH]c(-c4ccc(N(C)C)cc4)nc23)CC1 (stereo not shown) [Example 53, 4-(6-Bromo-7-(4-(1-(pyridin-4-yl)ethyl)piperazin-1-yl)-3H-imidazo[4,5-b]pyridin-2-yl)-N,N-dimethylaniline] | 500 to 2000 | < 500 |  |  |  |  | 
11 | CN(C)c1ccc(-c2nc3c(N4CCN(CC(=O)Nc5cccc(Cl)c5)CC4)c(Cl)cnc3[nH]2)cc1 [Example 24, 2-(4-(6-Chloro-2-(4-(dimethylamino)phenyl)-3H-imidazo[4,5-b]pyridin-7-yl)piperazin-1-yl)-N-(3-chlorophenyl)acetamide] | 2000 to 50000 | < 500 |  |  |  |  | 
12 | Brc1cnc2[nH]c(-c3ccc(N4CCOCC4)cc3)nc2c1N1CCN(Cc2cncnc2)CC1 [Example 123, 4-(4-(6-Bromo-7-(4-(pyrimidin-5-ylmethyl)piperazin-1-yl)-3H-imidazo[4,5-b]pyridin-2-yl)phenyl)morpholine] | 500 to 2000 | < 500 |  |  |  |  | 
13 | Fc1ccc(CN2CCN(c3c(Br)cnc4[nH]c(-c5ccc(CN6CCOCC6)cc5)nc34)CC2)cc1 [Example 148, 4-(4-(6-Bromo-7-(4-(4-fluorobenzyl)piperazin-1-yl)-3H-imidazo[4,5-b]pyridin-2-yl)benzyl)morpholine] | 500 to 2000 | < 500 |  |  |  |  | 
14 | Cn1ccnc1CN1CCN(c2c(Br)cnc3[nH]c(-c4ccc(CN5CCOCC5)cc4)nc23)CC1 [Example 166, 4-(4-(6-Bromo-7-(4-((1-methyl-1H-imidazol-2-yl)methyl)piperazin-1-yl)-3H-imidazo[4,5-b]pyridin-2-yl)benzyl)morpholine] | 500 to 2000 | < 500 |  |  |  |  | 
15 | O=C(CN1CCN(c2c(Cl)cnc3[nH]c(-c4ccc(N5CCS(=O)(=O)CC5)cc4)nc23)CC1)Nc1nccs1 [Example 187, 2-(4-(6-Chloro-2-(4-(1,1-dioxothiomorpholino)phenyl)-3H-imidazo[4,5-b]pyridin-7-yl)piperazin-1-yl)-N-(thiazol-2-yl)acetamide] | 500 to 2000 | < 500 |  |  |  |  | 
16 | CN(C)c1ccc(-c2nc3c(N4CCN(S(C)(=O)=O)CC4)c(Br)cnc3[nH]2)cc1 [Example 49, 4-(6-Bromo-7-(4-(methylsulfonyl)piperazin-1-yl)-3H-imidazo[4,5-b]pyridin-2-yl)-N,N-dimethylaniline] | 500 to 2000 | < 500 |  |  |  |  | 
17 | Clc1ccc(CN2CCN(c3c(Br)cnc4[nH]c(-c5ccc(Cn6cccn6)cc5)nc34)CC2)cc1 [Example 85, 2-(4-((1H-Pyrazol-1-yl)methyl)phenyl)-6-bromo-7-(4-(4-chlorobenzyl)piperazin-1-yl)-3H-imidazo[4,5-b]pyridine] | < 500 | < 500 |  |  |  |  | 
